Data as given in US11104664B2, “4,5,6-trisubstituted indazole derivatives, and preparation method and pharmaceutical use thereof” (SHANGHAI HAIYAN PHARMACEUTICAL TECHNOLOGY CO., LTD., priority 2016, dated 2021).

Columns and labels:
[1] = biological target: Recombinant PRC2 (EZH2-Y641F) (Homo sapiens (Human), UniProt Q15910, Y641F); assay: In vitro methyltransferase activity assay (LANCE Ultra); assay type: biochemical; details: for IC50: 2.5 μM SAM/250 nM H3(1-50)K27me1, 3 hours, room temperature
Chain of Recombinant PRC2 (EZH2-Y641F) (Q15910 whole entry Y641F): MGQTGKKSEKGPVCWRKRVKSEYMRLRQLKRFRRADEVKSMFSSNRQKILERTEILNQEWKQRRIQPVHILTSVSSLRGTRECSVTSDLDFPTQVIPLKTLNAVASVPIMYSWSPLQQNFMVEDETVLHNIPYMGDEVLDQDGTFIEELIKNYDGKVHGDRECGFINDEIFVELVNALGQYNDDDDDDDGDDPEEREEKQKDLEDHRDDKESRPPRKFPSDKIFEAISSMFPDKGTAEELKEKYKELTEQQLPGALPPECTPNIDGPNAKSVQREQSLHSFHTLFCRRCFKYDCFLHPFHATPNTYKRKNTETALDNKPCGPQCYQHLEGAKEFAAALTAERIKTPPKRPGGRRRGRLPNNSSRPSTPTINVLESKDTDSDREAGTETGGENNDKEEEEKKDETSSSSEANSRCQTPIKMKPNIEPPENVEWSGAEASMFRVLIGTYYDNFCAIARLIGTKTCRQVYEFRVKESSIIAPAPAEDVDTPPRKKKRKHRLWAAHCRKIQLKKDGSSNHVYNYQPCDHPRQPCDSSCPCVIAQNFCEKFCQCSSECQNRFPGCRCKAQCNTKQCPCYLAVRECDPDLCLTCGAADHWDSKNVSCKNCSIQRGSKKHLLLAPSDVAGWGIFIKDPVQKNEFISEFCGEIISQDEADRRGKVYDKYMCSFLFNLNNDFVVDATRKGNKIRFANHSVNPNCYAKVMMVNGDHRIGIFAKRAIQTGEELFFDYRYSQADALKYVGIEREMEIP
Chain of Recombinant PRC2 (EZH2-Y641F) (O75530 whole entry partner): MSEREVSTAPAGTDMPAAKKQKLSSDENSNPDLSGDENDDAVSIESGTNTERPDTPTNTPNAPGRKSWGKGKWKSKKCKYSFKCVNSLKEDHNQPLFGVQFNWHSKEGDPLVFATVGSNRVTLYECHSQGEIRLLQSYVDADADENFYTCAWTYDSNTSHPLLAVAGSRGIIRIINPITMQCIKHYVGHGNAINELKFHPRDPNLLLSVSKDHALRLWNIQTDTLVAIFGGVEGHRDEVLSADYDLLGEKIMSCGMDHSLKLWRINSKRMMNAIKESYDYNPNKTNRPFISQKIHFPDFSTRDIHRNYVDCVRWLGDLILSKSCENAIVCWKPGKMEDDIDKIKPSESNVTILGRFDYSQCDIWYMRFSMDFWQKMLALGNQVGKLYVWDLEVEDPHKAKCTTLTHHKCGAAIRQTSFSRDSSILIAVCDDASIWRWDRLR
Chain of Recombinant PRC2 (EZH2-Y641F) (Q15022 whole entry partner): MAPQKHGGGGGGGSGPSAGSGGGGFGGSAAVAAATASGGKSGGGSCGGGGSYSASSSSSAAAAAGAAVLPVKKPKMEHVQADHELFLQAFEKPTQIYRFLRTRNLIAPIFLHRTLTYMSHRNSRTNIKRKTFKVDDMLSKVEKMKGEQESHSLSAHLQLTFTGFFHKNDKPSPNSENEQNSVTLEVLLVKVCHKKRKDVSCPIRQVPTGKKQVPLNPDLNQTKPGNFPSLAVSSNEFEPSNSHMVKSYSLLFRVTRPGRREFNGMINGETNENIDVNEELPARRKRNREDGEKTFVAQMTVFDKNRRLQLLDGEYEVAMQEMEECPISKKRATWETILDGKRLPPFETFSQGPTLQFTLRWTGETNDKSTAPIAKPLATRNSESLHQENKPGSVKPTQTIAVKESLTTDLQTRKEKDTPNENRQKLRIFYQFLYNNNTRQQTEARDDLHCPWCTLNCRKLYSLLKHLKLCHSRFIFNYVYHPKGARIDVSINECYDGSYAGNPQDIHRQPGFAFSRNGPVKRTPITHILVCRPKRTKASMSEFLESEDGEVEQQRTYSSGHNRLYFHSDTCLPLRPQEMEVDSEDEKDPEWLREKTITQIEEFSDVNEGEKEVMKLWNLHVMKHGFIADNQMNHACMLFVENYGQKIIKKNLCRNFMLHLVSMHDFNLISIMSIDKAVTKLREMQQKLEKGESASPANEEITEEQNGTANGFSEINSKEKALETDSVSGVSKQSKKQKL
Chain of Recombinant PRC2 (EZH2-Y641F) (Q09028 whole entry partner): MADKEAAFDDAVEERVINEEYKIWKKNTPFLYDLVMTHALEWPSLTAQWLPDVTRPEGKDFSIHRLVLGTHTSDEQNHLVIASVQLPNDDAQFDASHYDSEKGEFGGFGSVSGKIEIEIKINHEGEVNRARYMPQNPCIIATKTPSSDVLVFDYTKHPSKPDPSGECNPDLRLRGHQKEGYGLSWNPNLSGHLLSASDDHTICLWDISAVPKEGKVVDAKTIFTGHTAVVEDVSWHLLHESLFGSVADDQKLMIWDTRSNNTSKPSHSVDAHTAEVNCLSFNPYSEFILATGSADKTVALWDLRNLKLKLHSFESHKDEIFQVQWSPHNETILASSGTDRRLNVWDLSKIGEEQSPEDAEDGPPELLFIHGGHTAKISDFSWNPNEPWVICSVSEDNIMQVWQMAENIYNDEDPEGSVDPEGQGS
Chain of Recombinant PRC2 (EZH2-Y641F) (Q6ZN18 whole entry partner): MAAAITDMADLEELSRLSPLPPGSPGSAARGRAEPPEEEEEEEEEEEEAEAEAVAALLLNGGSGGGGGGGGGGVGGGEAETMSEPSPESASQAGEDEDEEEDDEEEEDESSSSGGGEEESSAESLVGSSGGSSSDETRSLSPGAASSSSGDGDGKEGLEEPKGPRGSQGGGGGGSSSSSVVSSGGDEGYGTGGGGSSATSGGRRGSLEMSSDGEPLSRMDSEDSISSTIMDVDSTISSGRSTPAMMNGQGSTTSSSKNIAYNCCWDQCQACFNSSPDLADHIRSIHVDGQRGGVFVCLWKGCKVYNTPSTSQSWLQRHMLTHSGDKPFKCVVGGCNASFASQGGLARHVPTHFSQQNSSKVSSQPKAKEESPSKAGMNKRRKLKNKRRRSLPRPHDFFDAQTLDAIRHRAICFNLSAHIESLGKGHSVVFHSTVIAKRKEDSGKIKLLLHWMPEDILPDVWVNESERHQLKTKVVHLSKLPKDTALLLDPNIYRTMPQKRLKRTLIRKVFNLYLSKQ
Method: Recombinant PRC2 (EZH2-Y641F) was purchased from Active motif, S-adenosyl-methionine (SAM) and Poly-L-lysine (PLL) were purchased from Sigma-Aldrich, and H3(1-50)K27me1 peptide was purchased from Cisbio. LANCEUltrasystem (Perkinelmer) was used for detection system. In the enzyme activity test, compounds to be tested were diluted by 8 gradient points in a ratio of 1:3, and added into each well in a reaction plate, and 100 ng recombinase was added, followed by a buffer [20 mM Tris pH8.5, 2 mM MgCl2, 0.01% Tween-20, 1 mM TCEP] containing 2.5 μM SAM/250 nM H3 (1-50)K27me1 premixtures. Enzymatic reaction thus began at room temperature. After reacted for 3 hours, a detection solution premixed with PLL, detection antibody and Ulight was added, and reacted for 1 hour at room temperature. The fluorescence value was then read on a Tecan infinite pro. IC50 was calculated by fitting in a four-factor model in the XLfit software.

Pfeiffer cells = assay: Cell proliferation assay (Cell counting kit-8, 6 days); assay type: cell-based; details: Pfeiffer (CRL-2632), 6 days culture
Method: The used cell lines Pfeiffer (CRL-2632), suDHL-6 (CRL-2959) and suDHL-10 (CRL-2963) were obtained from American Type Culture Collection (ATCC). All cell lines were cultured in RPMI-1640 medium (Gibco) containing 10% fetal bovine serum (Gibco). The cultured cells were harvested by centrifugation and the cell density was determined using a CounterStar cell counter. Appropriate number of cells were plated in a 96-well culture plate and incubated overnight. Compounds to be tested were diluted by 8 gradient points in a ratio of 1:3 and added into corresponding wells. After continuing to culture for 6 days, the number of viable cells was measured with Cell counting kit-8, and the absorbance value was read on Tecan infinite pro. The IC50 was calculated by fitting in a four-parameter model in the XLfit software.

Structure (SMILES) | IC50 [1] [nM] | IC50 (Pfeiffer cells) [nM] | IC50 (Pfeiffer cells; Homo sapiens, 144 h) [nM] | inhibitory activity against the enzyme (in words) ([1]; SAR comment on Table 1, reduced relative to comparator compounds (P-7, P-13/14))
CCc1c(C(=O)NCc2c(OC)cc(C)[nH]c2=O)cc2c(cnn2C)c1N(C)[C@H]1CC[C@H](N(C)CCOC)CC1 [P-21, 5-ethyl-4-(methyl((1R, 4R)-4-((2-methoxyethyl) (methyl)amino)cyclohexyl)amino)-N-((4-methoxy-6-methyl-2-oxo-1,2-dihydropyridin-3-yl)methyl)-1-methyl-1H-indazole-6-carboxamide] | 14 | 32 |  | 
CCc1c(C(=O)NCc2c(OC)cc(C)[nH]c2=O)cc2c(cnn2C)c1N(CC)C1CCC(N(C)C)CC1 (stereo not shown) [P-22, 4-((4-(dimethylamino)cyclohexyl)(ethyl)amino)-5-ethyl-N-((4-methoxy-6-methyl-2-oxo-1,2-dihydropyridin-3-yl)methyl) 1-methyl-1H-indazole-6-carboxamide] | 5 | 66 |  | 
CCc1c(C(=O)NCc2c(C)cc(C)[nH]c2=O)cc2c(cnn2C)c1N(CC)C1CCC(N(C)C)CC1 (stereo not shown) [P-23] | 5 |  | 25 | 
CCc1c(C(=O)NCc2c(C)cc(C)[nH]c2=O)cc2c(cnn2C)c1N(CC)C1CCC(N2CCOCC2)CC1 (stereo not shown) [P-24] | 9 |  | 169 | 
CCc1c(C(=O)NCc2c(C)cc(C)[nH]c2=O)cc2c(cnn2C)c1N(CC)C1CCC(NC(F)(F)F)CC1 (stereo not shown) [P-25] | 46 |  | 278 | 
CCN(c1c(C)c(C(=O)NCc2c(C)cc(C)[nH]c2=O)cc2c1cnn2C)C1CCC(CN(C)C)CC1 (stereo not shown) [P-26] | 8 |  | 48 | 
CCN(c1c(C#N)c(C(=O)NCc2c(C)cc(C)[nH]c2=O)cc2c1cnn2C)C1CCOCC1 [P-27] | 1750 |  | > 10000 | 
CCN(c1c(C2CC2)c(C(=O)NCc2c(C)cc(C)[nH]c2=O)cc2c1cnn2C)C1CCOCC1 [P-28] | 402 |  | 702 | 
CCc1c(C(=O)NCc2c(C)cc(C)[nH]c2=O)cc2c(cnn2C)c1N(CC)C1CCC(N2CCNCC2)CC1 (stereo not shown) [P-29] | 34 |  | 191 | 
CCc1c(C(=O)NCc2c(C)cc(C)[nH]c2=O)cc2c(cnn2C)c1N(CC)C1CCC(N2CCN(C)CC2)CC1 (stereo not shown) [P-30] | 46 |  | 201 | 
CCN(c1c(C)c(C(=O)NCc2c(C)cc(C)[nH]c2=O)cc2c1cnn2C)C1CCC(N2CC(F)(F)C2)CC1 (stereo not shown) [P-31] | 15 |  | 130 | 
CCN(c1c(C)c(C(=O)NCc2c(C)cc(C)[nH]c2=O)cc2c1cnn2C)C1CCC(N2CCCCC2)CC1 (stereo not shown) [P-32] | 12 |  | 59 | 
CCN(c1c(C)c(C(=O)NCc2c(C)cc(C)[nH]c2=O)cc2c1cnn2C)C1CCC(N(C)CCN(C)C)CC1 (stereo not shown) [P-34] | 26 |  | 196 | 
CCc1c(C(=O)NCc2c(C)cc(C)[nH]c2=O)cc2c(cnn2C)c1N(CC)C1CCC(N2CC(OCC(F)(F)F)C2)CC1 (stereo not shown) [P-36] | 13 |  | 3 | 
CCN(c1c(C)c(C(=O)NCc2c(C)cc(C)[nH]c2=O)cc2c1cnn2C)C1CCC(N2CC(OCC(F)(F)F)C2)CC1 (stereo not shown) [P-37] | 12 |  | 297 | 
CCOC1CN(C2CCC(N(CC)c3c(CC)c(C(=O)NCc4c(C)cc(C)[nH]c4=O)cc4c3cnn4C)CC2)C1 (stereo not shown) [P-39] | 7 |  | 5 | 
CCN(c1c(C)c(C(=O)NCc2c(C)cc(C)[nH]c2=O)cc2c1c(F)nn2C)C1CCOCC1 [P-41] | 425 |  | 2000 | greatly reduced
CCN(c1ccc(CN(C)C)cc1)c1c(C)c(C(=O)NCc2c(C)cc(C)[nH]c2=O)cc2c1cnn2C [P-43] | 33 |  | 123 | 
CCN(c1c(C)c(C(=O)NCc2c(C)cc(C)[nH]c2=O)cc2c1cnn2C)C1CCC(N(C)CC(F)(F)F)CC1 (stereo not shown) [P-44, N-((4,6-dimethyl-2-oxo-1,2-dihydropyridin-3-yl)methyl)-4-(ethyl(4-(methyl(2,2,2-trifluoroethyl)amino)cyclohexyl)amino)-1,5-dimethyl-1H-indazole-6-carboxamide] | 60 |  | 300 | 
CCc1c(C(=O)NCc2c(C)cc(C)[nH]c2=O)cc2c(cnn2C)c1N(CC)C1CCC(N2CC(O)C2)CC1 (stereo not shown) [P-47, N-((4,6-dimethyl-2-oxo-1,2-dihydropyridin-3-yl)methyl)-5-ethyl-4-(ethyl(4-(3-hydroxyazetidin-1-yl)cyclohexyl)amino)-1-methyl-1H-indazole-6-carboxamide] | 7 |  | 178 | 
CCN(c1c(C)c(C(=O)NCc2c(C)cc(C)[nH]c2=O)cc2c1cnn2C)C1CCN(C2COC2)CC1 [P-48, N-((4,6-dimethyl-2-oxo-1,2-dihydropyridin-3-yl)methyl)-4-(ethyl(1-(oxetane-3-yl)piperidin-4-yl)amino)-1,5-dimethyl-1H-indazole-6-carboxamide] | 49 |  | 305 | 
